Holding throughout (assay type): biochemical
In one test the target is JAK1 (Homo sapiens, UniProt P23458). As to the kind of experiment: JAK 1 enzymatic inhibitory activity IC50 assay (Caliper conversion rate). The settings on record: Km ATP, 28° C., 1 hour. The method, boiled down: (§1)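 Human JAK1 or JAK2 enzyme was preincubated with graded compound (2% DMSO) in HEPES pH 7.5/Brij-35/DTT buffer (JAK1 also with Triton), then peptide substrate, 10 mM MgCl2 and ATP at Km were added. Reactions ran 1 hour at 28° C; Caliper conversion rate gave inhibition, averaged over two tests, for IC50.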
Sequence of JAK1 (P23458 whole entry, species assumed): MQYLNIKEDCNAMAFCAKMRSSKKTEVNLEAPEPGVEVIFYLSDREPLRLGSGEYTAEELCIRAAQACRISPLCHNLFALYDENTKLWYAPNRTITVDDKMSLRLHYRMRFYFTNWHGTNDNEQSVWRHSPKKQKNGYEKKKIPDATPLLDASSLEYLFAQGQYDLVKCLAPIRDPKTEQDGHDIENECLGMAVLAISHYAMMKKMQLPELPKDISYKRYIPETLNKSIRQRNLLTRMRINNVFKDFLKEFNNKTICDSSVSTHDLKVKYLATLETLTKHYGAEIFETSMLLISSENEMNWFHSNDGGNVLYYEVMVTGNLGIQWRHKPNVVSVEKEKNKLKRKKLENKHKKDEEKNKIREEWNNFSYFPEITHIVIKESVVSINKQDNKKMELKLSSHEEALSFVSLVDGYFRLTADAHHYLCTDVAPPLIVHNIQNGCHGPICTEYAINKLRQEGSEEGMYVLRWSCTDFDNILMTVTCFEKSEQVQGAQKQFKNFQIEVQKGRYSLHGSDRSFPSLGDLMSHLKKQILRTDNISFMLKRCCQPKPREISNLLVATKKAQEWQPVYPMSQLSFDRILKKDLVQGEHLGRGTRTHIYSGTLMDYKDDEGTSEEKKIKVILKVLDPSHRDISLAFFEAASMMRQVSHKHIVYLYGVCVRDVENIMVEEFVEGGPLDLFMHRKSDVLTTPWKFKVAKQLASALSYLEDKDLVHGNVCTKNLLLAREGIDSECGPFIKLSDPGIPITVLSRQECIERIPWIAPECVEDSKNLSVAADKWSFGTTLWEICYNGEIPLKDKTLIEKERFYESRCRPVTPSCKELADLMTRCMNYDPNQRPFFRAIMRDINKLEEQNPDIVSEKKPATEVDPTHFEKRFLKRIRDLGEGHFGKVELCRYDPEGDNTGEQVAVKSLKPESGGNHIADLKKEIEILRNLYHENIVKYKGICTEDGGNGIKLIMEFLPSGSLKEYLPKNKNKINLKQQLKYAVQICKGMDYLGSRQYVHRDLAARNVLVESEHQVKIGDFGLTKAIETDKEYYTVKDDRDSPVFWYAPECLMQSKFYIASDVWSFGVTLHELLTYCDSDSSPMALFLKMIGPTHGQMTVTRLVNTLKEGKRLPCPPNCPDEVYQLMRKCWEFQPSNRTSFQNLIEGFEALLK

The next test addresses JAK2 (Homo sapiens, UniProt O60674). The test is described as follows: JAK 2 enzymatic inhibitory activity IC50 assay (Caliper conversion rate). The settings on record: Km ATP, 28° C., 1 hour. The method, boiled down:
as §1

For another test, the target named is T1, JAK3 (Homo sapiens, UniProt P52333).
T1 sequence (P52333 1-1124): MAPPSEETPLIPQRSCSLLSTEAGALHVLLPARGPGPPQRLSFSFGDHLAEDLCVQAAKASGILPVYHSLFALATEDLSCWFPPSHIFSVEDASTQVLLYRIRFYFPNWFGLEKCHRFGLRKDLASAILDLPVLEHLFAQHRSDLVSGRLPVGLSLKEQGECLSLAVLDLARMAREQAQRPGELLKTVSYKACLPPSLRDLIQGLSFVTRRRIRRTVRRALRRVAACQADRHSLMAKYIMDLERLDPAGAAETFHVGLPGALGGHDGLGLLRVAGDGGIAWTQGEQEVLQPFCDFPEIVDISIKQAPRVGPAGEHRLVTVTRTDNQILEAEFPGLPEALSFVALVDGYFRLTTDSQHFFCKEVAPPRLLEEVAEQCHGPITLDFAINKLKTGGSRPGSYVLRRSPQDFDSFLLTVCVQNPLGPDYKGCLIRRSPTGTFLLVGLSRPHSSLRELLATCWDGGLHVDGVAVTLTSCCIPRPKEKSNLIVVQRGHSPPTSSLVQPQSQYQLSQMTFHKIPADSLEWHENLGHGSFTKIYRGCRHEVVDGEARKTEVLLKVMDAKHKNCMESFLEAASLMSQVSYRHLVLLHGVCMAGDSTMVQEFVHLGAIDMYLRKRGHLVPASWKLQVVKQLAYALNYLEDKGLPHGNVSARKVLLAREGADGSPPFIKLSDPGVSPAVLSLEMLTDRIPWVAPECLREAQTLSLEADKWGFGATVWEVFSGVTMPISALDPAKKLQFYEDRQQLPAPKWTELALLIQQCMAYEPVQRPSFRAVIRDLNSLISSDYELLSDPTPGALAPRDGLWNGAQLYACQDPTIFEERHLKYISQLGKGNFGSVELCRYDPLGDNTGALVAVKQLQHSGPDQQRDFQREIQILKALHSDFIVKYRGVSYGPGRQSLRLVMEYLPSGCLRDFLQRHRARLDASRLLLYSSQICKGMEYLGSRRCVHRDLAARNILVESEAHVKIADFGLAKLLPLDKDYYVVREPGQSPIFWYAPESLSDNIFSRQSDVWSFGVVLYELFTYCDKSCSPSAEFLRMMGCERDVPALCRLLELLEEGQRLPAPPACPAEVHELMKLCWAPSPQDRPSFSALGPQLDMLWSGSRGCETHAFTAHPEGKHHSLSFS
As to the kind of experiment: JAK 3 enzymatic inhibitory activity IC50 assay (Caliper conversion rate). The conditions noted are these: Km ATP, 28° C., 1 hour; read-out: JAK 3 enzymatic inhibitory activity IC50.

By IC50 is commonly meant the midpoint of a concentration-inhibition curve.

Sequence of JAK2 (O60674 whole entry, species assumed): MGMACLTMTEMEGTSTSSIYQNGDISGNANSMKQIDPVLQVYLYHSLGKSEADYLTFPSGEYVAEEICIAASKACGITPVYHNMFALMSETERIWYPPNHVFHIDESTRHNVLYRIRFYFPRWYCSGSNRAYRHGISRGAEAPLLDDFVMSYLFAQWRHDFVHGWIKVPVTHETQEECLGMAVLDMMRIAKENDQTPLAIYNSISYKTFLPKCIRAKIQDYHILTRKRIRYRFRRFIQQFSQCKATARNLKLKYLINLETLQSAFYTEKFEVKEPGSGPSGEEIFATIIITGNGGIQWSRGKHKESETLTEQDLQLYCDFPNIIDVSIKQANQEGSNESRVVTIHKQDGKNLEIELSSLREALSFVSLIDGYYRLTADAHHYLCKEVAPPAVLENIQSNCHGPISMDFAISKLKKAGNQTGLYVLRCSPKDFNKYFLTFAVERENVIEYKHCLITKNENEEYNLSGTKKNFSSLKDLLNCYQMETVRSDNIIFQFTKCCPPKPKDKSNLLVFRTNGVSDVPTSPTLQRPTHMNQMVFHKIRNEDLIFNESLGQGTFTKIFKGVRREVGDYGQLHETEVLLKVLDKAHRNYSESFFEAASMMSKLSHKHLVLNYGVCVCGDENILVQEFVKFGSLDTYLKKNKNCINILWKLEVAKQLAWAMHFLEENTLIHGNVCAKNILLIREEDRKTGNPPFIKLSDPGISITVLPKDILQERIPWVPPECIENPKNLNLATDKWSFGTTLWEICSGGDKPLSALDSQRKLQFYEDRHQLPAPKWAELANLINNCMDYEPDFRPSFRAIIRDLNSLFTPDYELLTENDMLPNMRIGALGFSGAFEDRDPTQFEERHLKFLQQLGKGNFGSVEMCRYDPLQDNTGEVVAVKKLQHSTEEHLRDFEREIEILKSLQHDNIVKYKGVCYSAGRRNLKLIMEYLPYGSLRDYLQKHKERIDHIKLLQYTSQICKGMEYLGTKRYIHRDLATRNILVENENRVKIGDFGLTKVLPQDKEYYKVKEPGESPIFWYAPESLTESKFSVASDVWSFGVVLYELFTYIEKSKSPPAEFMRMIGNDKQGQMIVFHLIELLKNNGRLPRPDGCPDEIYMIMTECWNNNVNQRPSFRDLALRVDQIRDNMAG

Regarding `CCS(=O)(=O)N1CC(CC#N)(n2cc(-c3nc(Nc4cc(C)[nH]n4)nc4ccsc34)cn2)C1` [Compound T-72, 2-(1-(Ethylsulfonyl)-3-(4-(2-((5-methyl-1H-pyrazol-3-yl)amino)thieno[3,2-d]pyrimidin-4-yl)-1H-pyrazol-1-yl)azetidin-3-yl)acetonitrile], the half-maximal inhibitory concentration (IC50) at JAK1, at JAK2 and on JAK3 was below 50 nM throughout.
Take `CS(=O)(=O)CCCn1cc(Nc2nc(-c3cnn(C4(CC#N)CCC4)c3)c3sccc3n2)cn1` [Compound T-73, 2-(1-(4-(2-((1-(3-(Methylsulfonyl)propyl)-1H-pyrazol-4-yl)amino)thieno[3,2-d]pyrimidin-4-yl)-1H-pyrazol-1-yl)cyclobutyl)acetonitrile]: the values for the IC50 at JAK1, against JAK2 and at JAK3 were 50 to 500 nM, below 50 nM and 50 to 500 nM, respectively.
On to `Cn1cc(Nc2nc(-c3cnn(C4(CC#N)CN(S(C)(=O)=O)C4)c3)c3sccc3n2)cn1` [Compound T-74, 2-(3-(4-(2-((1-Methyl-1H-pyrazol-4-yl)amino)thieno[3,2-d]pyrimidin-4-yl)-1H-pyrazol-1-yl)-1-(methylsulfonyl)azetidin-3-yl)acetonitrile], for which the IC50 against JAK1, on JAK2 and on JAK3 was below 50 nM each time.
With `Cn1cc(Nc2nc(-c3cnn(C4(CC#N)CC4)c3)c3sccc3n2)cn1` [Compound T-75, 2-(1-(4-(2-((1-Methyl-1H-pyrazol-4-yl)amino)thieno[3,2-d]pyrimidin-4-yl)-1H-pyrazol-1-yl)cyclopropyl)acetonitrile], the IC50 is 50 to 500 nM at JAK1, below 50 nM on JAK2 and 50 to 500 nM on JAK3.
For `N#CCC1(n2cc(-c3nc(Nc4cnn(C5CC5)c4)nc4ccsc34)cn2)CC1` [Compound T-76, 2-(1-(4-(2-((1-Cyclopropyl-1H-pyrazol-4-yl)amino)thieno[3,2-d]pyrimidin-4-yl)-1H-pyrazol-1-yl)cyclopropyl)acetonitrile], the values for the IC50 at JAK1, on JAK2 and at JAK3 were 50 to 500 nM, below 50 nM and 50 to 500 nM, respectively.
For `Cn1cc(Nc2nc(-c3cnn(C4(CC#N)CC(F)C4)c3)c3sccc3n2)cn1` (stereo not drawn) [Compound T-77, 2-(3-Fluoro-1-(4-(2-((1-methyl-1H-pyrazol-4-yl)amino)thieno[3,2-d]pyrimidin-4-yl)-1H-pyrazol-1-yl)cyclobutyl)acetonitrile], the IC50 against JAK1 is 50 to 500 nM; against JAK2, below 50 nM; at JAK3, 50 to 500 nM.
As to `CC(C)(O)Cn1cc(Nc2nc(-c3cnn(C4(CC#N)CN(S(C)(=O)=O)C4)c3)c3sccc3n2)cn1` [Compound T-78, 2-(3-(4-(2-((1-(2-Hydroxy-2-methylpropyl)-1H-pyrazol-4-yl)amino)thieno[3,2-d]pyrimidin-4-yl)-1H-pyrazol-1-yl)-1-(methylsulfonyl)azetidin-3-yl)acetonitrile], the IC50 against JAK1, against JAK2 and at JAK3 was below 50 nM in each case.
`CC(C)(CO)n1cc(Nc2nc(-c3cnn(C4(CC#N)CN(S(C)(=O)=O)C4)c3)c3sccc3n2)cn1` [Compound T-79, 2-(3-(4-(2-((1-(1-Hydroxy-2-methylpropan-2-yl)-1H-pyrazol-4-yl)amino)thieno[3,2-d]pyrimidin-4-yl)-1H-pyrazol-1-yl)-1-(methylsulfonyl)azetidin-3-yl)acetonitrile]: the IC50 against JAK1, at JAK2 and at JAK3 was below 50 nM throughout.
With `C[C@@H](O)Cn1cc(Nc2nc(-c3cnn(C4(CC#N)COC4)c3)c3sccc3n2)cn1` [Compound T-80, (R)-2-(3-(4-(2-((1-(2-Hydroxypropyl)-1H-pyrazol-4-yl)amino)thieno[3,2-d]pyrimidin-4-yl)-1H-pyrazol-1-yl)oxetan-3-yl)acetonitrile], the IC50 is 50 to 500 nM against JAK1, below 50 nM on JAK2 and 50 to 500 nM on JAK3.
For the compound `C[C@H](O)Cn1cc(Nc2nc(-c3cnn(C4(CC#N)COC4)c3)c3sccc3n2)cn1` [Compound T-81, (S)-2-(3-(4-(2-((1-(2-Hydroxypropyl)-1H-pyrazol-4-yl)amino)thieno[3,2-d]pyrimidin-4-yl)-1H-pyrazol-1-yl)oxetan-3-yl)acetonitrile], the IC50 is 50 to 500 nM on JAK1, below 50 nM at JAK2 and 50 to 500 nM at JAK3.
Consider `C[C@H](CO)n1cc(Nc2nc(-c3cnn(C4(CC#N)COC4)c3)c3sccc3n2)cn1` [Compound T-82, (R)-2-(3-(4-(2-((1-(1-Hydroxypropan-2-yl)-1H-pyrazol-4-yl)amino)thieno[3,2-d]pyrimidin-4-yl)-1H-pyrazol-1-yl)oxetan-3-yl)acetonitrile], for which the IC50 on JAK1 is 50 to 500 nM; against JAK2, below 50 nM; at JAK3 it was 50 to 500 nM.
As to `C[C@@H](CO)n1cc(Nc2nc(-c3cnn(C4(CC#N)COC4)c3)c3sccc3n2)cn1` [Compound T-83, (S)-2-(3-(4-(2-((1-(1-Hydroxypropan-2-yl)-1H-pyrazol-4-yl)amino)thieno[3,2-d]pyrimidin-4-yl)-1H-pyrazol-1-yl)oxetan-3-yl)acetonitrile], the IC50 against JAK1 is below 50 nM; at JAK2, below 50 nM; on JAK3, 50 to 500 nM.
For `C[C@H](CO)n1cc(Nc2nc(-c3cnn(C4(CC#N)CN(S(C)(=O)=O)C4)c3)c3sccc3n2)cn1` [Compound T-84, (R)-2-(3-(4-(2-((1-(1-Hydroxypropan-2-yl)-1H-pyrazol-4-yl)amino)thieno[3,2-d]pyrimidin-4-yl)-1H-pyrazol-1-yl)-1-(methylsulfonyl)azetidin-3-yl)acetonitrile], the half-inhibitory concentration (IC50) at JAK1, against JAK2 and at JAK3 was below 50 nM in each case.
On to `C[C@@H](CO)n1cc(Nc2nc(-c3cnn(C4(CC#N)CN(S(C)(=O)=O)C4)c3)c3sccc3n2)cn1` [Compound T-85, (S)-2-(3-(4-(2-((1-(1-Hydroxypropan-2-yl)-1H-pyrazol-4-yl)amino)thieno[3,2-d]pyrimidin-4-yl)-1H-pyrazol-1-yl)-1-(methylsulfonyl)azetidin-3-yl)acetonitrile], for which the IC50 on JAK1, against JAK2 and at JAK3 was below 50 nM in each case.
As for `C[C@@H](O)Cn1cc(Nc2nc(-c3cnn(C4(CC#N)CN(S(C)(=O)=O)C4)c3)c3sccc3n2)cn1` [Compound T-86, (R)-2-(3-(4-(2-((1-(2-Hydroxypropyl)-1H-pyrazol-4-yl)amino)thieno[3,2-d]pyrimidin-4-yl)-1H-pyrazol-1-yl)-1-(methylsulfonyl)azetidin-3-yl)acetonitrile], the IC50 on JAK1, on JAK2 and at JAK3 was below 50 nM in each case.
With `C[C@H](O)Cn1cc(Nc2nc(-c3cnn(C4(CC#N)CN(S(C)(=O)=O)C4)c3)c3sccc3n2)cn1` [Compound T-87, (S)-2-(3-(4-(2-((1-(2-Hydroxypropyl)-1H-pyrazol-4-yl)amino)thieno[3,2-d]pyrimidin-4-yl)-1H-pyrazol-1-yl)-1-(methylsulfonyl)azetidin-3-yl)acetonitrile], the IC50 against JAK1, against JAK2 and on JAK3 was below 50 nM each time.

The values are drawn from patent publication US9745320B2, “Five-and-six-membered heterocyclic compound, and preparation method, pharmaceutical composition and use thereof” (SHANGHAI CHEMEXPLORER CO., LTD., priority 2013, dated 2017).
